Test results as given in BigSolDB 2.1.

NC(=O)c1cccnc1
solubility (mole fraction)
Conditions	in acetone	in ethanol	in ethyl acetate	in isobutanol	in isopropanol	in methanol	in methyl acetate	in n-butanol	in n-butyl acetate	in n-propanol
283.15 K	0.0116	0.0263	0.00797	0.0222	0.0187	0.0541	0.00929	0.0235	0.00936	0.0219
288.15 K	0.0134	0.032	0.00871	0.0248	0.023	0.0643	0.0101	0.0274	0.00955	0.0266
293.15 K	0.0164	0.0374	0.01	0.0292	0.0281	0.0748	0.0117	0.0315	0.01	0.0321
298.15 K	0.0191	0.0444	0.0112	0.0345	0.0328	0.0876	0.0135	0.0362	0.0107	0.0378
303.15 K	0.0234	0.0537	0.0129	0.0392	0.0396	0.102	0.0156	0.0416	0.0114	0.045
308.15 K	0.0286	0.0638	0.0145	0.0456	0.048	0.121	0.0179	0.0482	0.0124	0.0542
313.15 K	0.0342	0.0766	0.0163	0.0544	0.0573	0.141	0.0209	0.0566	0.0135	0.0647
318.15 K	0.0392	0.0912	0.0182	0.0637	0.0673	0.166	0.0235	0.0664	0.0153	0.0766
323.15 K	0.0472	0.11	0.0213	0.0754	0.0801	0.192	0.0272	0.0774	0.0181	0.0924
